Assay results published in US4141988A, “2,9-Dioxatricyclo[4,3,1,0^3,7 ]decane derivatives, processes for their preparation and pharmaceutical compositions thereof” (Kali-Chemie Pharma GmbH, priority 1977, dated 1979).

What was measured:
bradykinin induced pain = bradykinin induced pain test in rats (s.c.); format: in vivo, rat
Protocol: For example, the MED of both, the test substance 32-527 and morphine, is 0,56 mg/kg in the so-called step-irritation test in the rhesus monkey upon s.c. administration. Upon s.c. administration, the ED50 of the two substances for inhibiting the bradykinin induced pain in rats are as follows: […]

rhesus monkey [1] = test: step-irritation test in the rhesus monkey; format: in vivo
[2] = inhibition of intestinal motility in mice; settings: mouse, in vivo, po, read-out: intestinal motility inhibiting ED50
[3] = system: mice, rats and rhesus monkeys; test: analgesic activity in mice, rats and rhesus monkeys; format: in vivo
rhesus monkey [4] = test: self-administration test (addiction) in the rhesus monkey; format: in vivo; settings: contrary to morphine
Protocol: test substance No. 32-527 < 5,6 mg/kg and morphine 3,6 mg/kg.

acute toxicity = format: in vivo; settings: compared with propoxyphene or profadol

| Compound | ED50 for inhibiting the bradykinin induced pain (bradykinin induced pain) | minimal effective dose (rhesus monkey [1]; Macaca mulatta, sc, read-out: MED) | ED50 [2] | analgesic activity compared with morphine ([3]; enteral and parenteral) | analgesic activity ([3]; enteral and parenteral administration) | addiction syndroms in the self-administration test (rhesus monkey [4]) | MED (rhesus monkey [1]; step-irritation test, rhesus monkey, s.c.) | acute toxicity (acute toxicity) |
| --- | --- | --- | --- | --- | --- | --- | --- | --- |
| CN1CC[C@]23c4c5ccc(O)c4O[C@H]2[C@@H](O)C=C[C@H]3[C@H]1C5 [morphine, reference compound] | 3,6 mg/kg | 0.56 mg/kg | 39 mg/kg | – | – | – | – | – |
| COC1OC2OC3(C)C(NCCc4ccccc4Cl)CC(C2C)C13.Cl (stereo not drawn) [test substance No. 32-527, 4 α-(o-chlorophenethylamino)-3,10-dimethyl-8-methoxy-2,9-dioxatricyclo[4,3,1,0^3,7]decane hydrochloride] | < 5,6 mg/kg | – | – | of about the same order as that of morphine | exhibits analgesic activities | practically no addiction syndroms are observed | 0,56 mg/kg | similarly low toxicity as that of propoxyphene or profadol |
